Reference: patent publication US9394331B2, “2′-spiro-nucleosides and derivatives thereof useful for treating hepatitis C virus and dengue virus infections” (priority 2010, dated 2016)
Where two headings read alike, the source gives them in different places.

Legend:
[1] = system: HCV replicon; experiment: HCV replicon assay (Clone A cells and ET-lunet cells, HCV RNA by real time PCR); type: cell-based, hepatitis C virus; conditions: for EC90: read-out: EC90, anti-HCV 1b activity
Procedure: HCV replicon assay. HCV replicon assays using Clone A cells and ET-lunet cells were performed as described previously. L. J. Stuyver et al. Antimicrob. Agents Chemother. 2004, 48, 651-654. Briefly, Clone A cells and ET-lunet cells were seeded at a density of 1500 and 3000 cells per well in a 96-well plate, respectively. Test compounds serially diluted in culture medium without G418 were added to cells. Plates were incubated at 37° C. in a 5% CO2 atmosphere for 4 days. Inhibition of HCV RNA replication was determined by quantitative real time PCR. See, e.g., L. J. Stuyver et al. Antiviral Chem. Chemother. 2006, 17, 79-87.
To express the antiviral effectiveness of a compound, the threshold RT-PCR cycle of the test compound was subtracted from the average threshold RT-PCR cycle of the no-drug control (ΔCtHCV). A ΔCt of 3.3 equals a 1-log 10 reduction (equal to the 90% effective concentration [EC90]) in replicon RNA levels. The cytotoxicity of the test compound could also be expressed by calculating the ΔCtrRNA values. The ΔΔCt specificity parameter could then be introduced (ΔCtHCV-ΔCtrRNA), in which the levels of HCV RNA are normalized for the rRNA levels and calibrated against the no-drug control.

[2] = Cell cytotoxicity assay (MTS); type: cell-based; conditions: human
Procedure: Cell cytotoxicity assays. Each compound (serially diluted from 100 μM) was added to Huh7 (2×10^3 cells/well), HepG2 (2×10^3 cells/well), BxPC3 (2×10^3 cells/well), or CEM (5×10^3 cells/well) cells and allowed to incubate for 8 days at 37° C. A medium only control was used to determine the minimum absorbance value […]. At the end of the growth period, MTS dye from the CellTiter 96 Aqueous One Solution Cell Proliferation Assay kit (Promega) was added to each well and the plate was incubated for an additional 2 hours. The absorbance at 490 nm was read with a Victor3 plate reader (Perkin Elmer) using the medium only control wells as blanks. The 50% inhibition value (CC50) was determined by comparing the absorbance in wells containing cells and test compound to untreated cell control wells.

[3] = Cytotoxicity reported with the dengue assay; type: cell-based; conditions: Table 6; cell line not stated
[4] = system: Dengue 2 strain New Guinea C; experiment: Dengue CPE assay; type: cell-based, Dengue virus 2; conditions: Dengue virus, BHK-21, 72 h, Table 6; BHK-21 cells, 3 days, 50% cells surviving; read-out: EC50, activity against dengue virus
Procedure: Dengue CPE Assay. To measure cytopathic effect of Dengue virus 2, BHK-21 ([…], CCL-10 ATCC Manassas, Va.) cells were seeded at a density of 20,000 cells/well in a 96-well black/clear bottom plates (Becton Dickinson, Franklin Lakes, N.J.) one day prior to start of the assay and allowed to attach overnight in EMEM (ATCC Manassas, Va.) +10% FBS (Invitrogen, Carlsbad, Calif.) at 37° C. in a humidified 5% CO2 atmosphere. The next day, the medium was removed and the cells were infected with Dengue 2 strain New Guinea C (VR-1584, ATCC Manassas, Va.) at an MOI of 0.08 pfu/cell for two hours in 50 μL EMEM+2% FBS. For both the single point and dose response assays, compounds (2× concentration) were diluted in EMEM+2% FBS and 50 μL was added to infected cells without removing virus. Cells were incubated for 3 days at 37° C. in a humidified 5% CO2 atmosphere. The medium was aspirated and 50 μL of CellTiter-Glo (Promega, Madison, Wis.) was added to each well and read for 0.1 seconds on a Perkin Elmer Victor3 (Waltham, Mass.) plate reader. Percent survival was determined by subtracting the average value of infected control wells and normalizing to the non-infected wells. The effective concentration was calculated from the dose response data by forecasting 50% cells surviving with drug treatment.

[5] = Hepatitis C virus, 96 h, Table 1, HCV replicon, 4 days, read-out: EC50, anti-HCV activity of selected nucleosides
[6] = Hepatitis C virus, 96 h, Table 4, cyclic phosphates, diastereomeric mixtures
[7] = Table 3, cell line not stated, read-out: CC50
[8] = Hepatitis C virus, 96 h, Table 4, cyclic phosphates, diastereomeric mixtures, read-out: EC50, anti-HCV 1b activity
[9] = Hepatitis C virus, Table 2, HCV 1b replicon, unit inferred, read-out: EC50, anti-HCV 1b activity

## COc1nc(N)nc2c1ncn2[C@@H]1O[C@H](CO)[C@@H](O)[C@@]12CCO2 [compound 66, (4S,5R,7R,8R)-5-(2-amino-6-methoxy-9H-purin-9-yl)-7-(hydroxymethyl)-1,6-dioxaspiro[3.4]octan-8-ol]
[1]; [5]
  EC50: > 20 µM

## COc1nc(N)nc2c1ncn2C1OC2COP(=O)(OC3CCCC3)O[C@H]2[C@]12CCO2 (stereo partly drawn) [compound 134]
[2]
  CC50 at 8 days: > 20 µM
[1]; [6]
  EC90: > 20000 nM
[1]; Hepatitis C virus, Table 4, cyclic phosphates, diastereomeric mixtures, read-out: EC50, anti-HCV 1b activity
  EC50: 14 µM

## COc1nc(N)nc2c1ncn2[C@@H]1O[C@H](CO)[C@@H](O)[C@]12CCO2 [compound 76, (4R,5R,7R,8R)-5-(2-amino-6-methoxy-9H-purin-9-yl)-7-(hydroxymethyl)-1,6-dioxaspiro[3.4]octan-8-ol]
[1]; [5]
  EC50: > 100 µM

## Nc1nc2c(ncn2[C@@H]2O[C@H](CO)[C@@H](O)[C@]23CCO3)c(=O)[nH]1 [compound 77, 2-amino-9-((4R,5R,7R,8R)-8-hydroxy-7-(hydroxymethyl)-1,6-dioxaspiro[3.4]octan-5-yl)-1H-purin-6(9H)-one]
[1]; [5]
  EC50: > 20 µM

## CCOC(=O)[C@H](C)NP(=O)(OCC1OC(n2cnc3c(OC)nc(N)nc32)[C@@]2(CCO2)[C@@H]1O)Oc1ccccc1 (stereo partly drawn) [compound 122]
[2]; [7]
  CC50 at 8 days: > 20 µM
[3]
  CC50: > 20 µM
[1]; Hepatitis C virus, Table 3, HCV 1b replicon, read-out: EC50, anti-HCV 1b activity
  EC50: 0.857 µM
[1]; Hepatitis C virus, Table 3, HCV 1b replicon
  EC90: 3000 nM
[4]
  EC50: 5.84 µM

## COc1nc(N)nc2c1ncn2[C@@H]1O[C@H](CO)[C@@H](O)[C@@]12CCCO2 [compound 62, (5S,6R,8R,9R)-6-(2-amino-6-methoxy-9H-purin-9-yl)-8-(hydroxymethyl)-1,7-dioxaspiro[4.4]nonan-9-ol]
[1]; [5]
  EC50: > 20 µM

## COc1nc(N)nc2c1ncn2C1OC2COP(=O)(OCC(C)(C)C)O[C@H]2[C@]12CCO2 (stereo partly drawn) [compound 132]
[2]
  CC50 at 8 days: > 20 µM
[1]; [8]
  EC50: > 20 µM
[1]; [6]
  EC90: > 20000 nM

## COc1nc(N)nc2c1ncn2C1OC(COP(=O)(N[C@@H](C)C(=O)OCC(C)C)Oc2ccccc2)[C@@H](O)[C@]12CCO2 (stereo partly drawn) [compound 124]
[2]; [7]
  CC50 at 8 days: > 20 µM
[3]
  CC50: > 20 µM
[1]; Table 3, HCV 1b replicon, read-out: EC50, anti-HCV 1b activity
  EC50: 0.566 µM
[1]; Table 3, HCV 1b replicon
  EC90: 1810 nM
[4]
  EC50: 2.21 µM

## COc1nc(N)nc2c1ncn2C1OC2COP(=O)(OC(C)C)O[C@H]2[C@]12CCO2 (stereo partly drawn) [compound 133]
[2]
  CC50 at 8 days: > 20 µM
[1]; [8]
  EC50: > 20 µM
[1]; [6]
  EC90: > 20000 nM

## O=c1ccn([C@@H]2O[C@H](CO)[C@@H](O)[C@]23CCCO3)c(=O)[nH]1 [compound 44, 1-((5R,6R,8R,9R)-9-hydroxy-8-(hydroxymethyl)-1,7-dioxaspiro[4.4]nonan-6-yl)pyrimidine-2,4(1H,3H)-dione]
[1]; [5]
  EC50: > 100 µM

## Nc1ccn([C@@H]2O[C@H](CO)[C@@H](O)[C@@]23CCCO3)c(=O)n1 [compound 50, 4-amino-1-((5S,6R,8R,9R)-9-hydroxy-8-(hydroxymethyl)-1,7-dioxaspiro[4.4]nonan-6-yl)pyrimidin-2(1H)-one]
[1]; [5]
  EC50: > 100 µM

## Nc1ccn([C@@H]2O[C@H](CO)[C@@H](O)[C@]23CCCO3)c(=O)n1 [compound 49, 4-amino-1-((5R,6R,8R,9R)-9-hydroxy-8-(hydroxymethyl)-1,7-dioxaspiro[4.4]nonan-6-yl)pyrimidin-2(1H)-one]
[1]; [5]
  EC50: > 100 µM

## O=c1ccn([C@@H]2O[C@H](CO)[C@@H](O)[C@@]23CCO3)c(=O)[nH]1 [compound 36, 1-((4S,5R,7R,8R)-8-hydroxy-7-(hydroxymethyl)-1,6-dioxaspiro[3.4]octan-5-yl)pyrimidine-2,4(1H,3H)-dione]
[1]; [5]
  EC50: > 100 µM

## Nc1ccn([C@@H]2O[C@H](CO)[C@@H](O)[C@]23CCO3)c(=O)n1 [compound 52, 4-amino-1-((4R,5R,7R,8R)-8-hydroxy-7-(hydroxymethyl)-1,6-dioxaspiro[3.4]octan-5-yl)pyrimidin-2(1H)-one]
[1]; [5]
  EC50: > 54.5 µM

## COC(=O)[C@H](C)NP(=O)(OC[C@H]1O[C@@H](n2ccc(=O)[nH]c2=O)[C@@]2(CCO2)[C@@H]1O)Oc1ccccc1 (stereo partly drawn) [compound 117, (2S)-methyl 2-(((((4R,5R,7R,8R)-5-(2,4-dioxo-3,4-dihydropyrimidin-1 (2H)-yl)-8-hydroxy-1,6-dioxaspiro[3.4]octan-7-yl)methoxy)(phenoxy)phosphoryl)amino)propanoate]
[1]; [9]
  EC50: 16.7 µM

## Nc1ccn([C@@H]2O[C@H](CO)[C@@H](O)[C@@]23CCO3)c(=O)n1 [compound 51, 4-amino-1-((4S,5R,7R,8R)-8-hydroxy-7-(hydroxymethyl)-1,6-dioxaspiro[3.4]octan-5-yl)pyrimidin-2(1H)-one]
[1]; [5]
  EC50: > 100 µM

## COc1nc(N)nc2c1ncn2[C@@H]1O[C@H](CO)[C@@H](O)[C@]12CCCO2 [compound 72, (5R,6R,8R,9R)-6-(2-amino-6-methoxy-9H-purin-9-yl)-8-(hydroxymethyl)-1,7-dioxaspiro[4.4]nonan-9-ol]
[1]; [5]
  EC50: > 20 µM

## COC(=O)[C@H](C)NP(=O)(OC[C@H]1O[C@@H](n2cnc3c(OC)nc(N)nc32)[C@@]2(CCO2)[C@@H]1O)Oc1ccccc1 (stereo partly drawn) [compound 113, (2S)-methyl 2-(((((4R,5R,7R,8R)-5-(2-amino-6-methoxy-9H-purin-9-yl)-8-hydroxy-1,6-dioxaspiro[3.4]octan-7-yl)methoxy)(phenoxy)phosphoryl)amino)propanoate]
[3]
  CC50: > 20 µM
[1]; [9]
  EC50: 1.55 µM
[4]
  EC50: 6.23 µM

## COC(=O)[C@H](C)NP(=O)(OC[C@H]1O[C@@H](n2ccc(=O)[nH]c2=O)[C@]2(CCCO2)[C@@H]1O)Oc1ccccc1 (stereo partly drawn) [compound 114, (2S)-methyl 2-(((((5S,6R,8R,9R)-6-(2,4-dioxo-3,4-dihydropyrimidin-1 (2H)-yl)-9-hydroxy-1,7-dioxaspiro[4.4]nonan-8-yl)methoxy)(phenoxy)phosphoryl)amino)propanoate]
[1]; [9]
  EC50: 20.6 µM

## O=c1ccn([C@@H]2O[C@H](CO)[C@@H](O)[C@@]23CCCO3)c(=O)[nH]1 [compound 32, 1-((5 S,6R,8R,9R)-9-hydroxy-8-(hydroxymethyl)-1,7-dioxaspiro[4.4]nonan-6-yl)pyrimidine-2,4(1H,3H)-dione]
[1]; [5]
  EC50: > 100 µM

## O=c1ccn([C@@H]2O[C@H](CO)[C@@H](O)[C@]23CCO3)c(=O)[nH]1 [compound 48, 1-((4R,5R,7R,8R)-8-hydroxy-7-(hydroxymethyl)-1,6-dioxaspiro[3.4]octan-5-yl)pyrimidine-2,4(1H,3H)-dione]
[1]; [5]
  EC50: > 100 µM

## COC(=O)[C@H](C)NP(=O)(OC[C@H]1O[C@@H](n2ccc(=O)[nH]c2=O)[C@]2(CCO2)[C@@H]1O)Oc1ccccc1 (stereo partly drawn) [compound 115, (2S)-methyl 2-(((((4S,5R,7R,8R)-5-(2,4-dioxo-3,4-dihydropyrimidin-1 (2H)-yl)-8-hydroxy-1,6-dioxaspiro[3.4]octan-7-yl)methoxy)(phenoxy)phosphoryl)amino)propanoate]
[1]; [9]
  EC50: 28.5 µM

## COC(=O)[C@H](C)NP(=O)(OC[C@H]1O[C@@H](n2ccc(=O)[nH]c2=O)[C@@]2(CCCO2)[C@@H]1O)Oc1ccccc1 (stereo partly drawn) [compound 116, (2S)-methyl 2-(((((5R,6R,8R,9R)-6-(2,4-dioxo-3,4-dihydropyrimidin-1 (2H)-yl)-9-hydroxy-1,7-dioxaspiro[4.4]nonan-8-yl)methoxy)(phenoxy)phosphoryl)amino)propanoate]
[1]; [9]
  EC50: 28.3 µM
